Tested on: PSMA
Settings: 2 nM DHT, 48 h, 5% charcoal-stripped FBS RPMI-1640, Western blot

C[C@]12CCC(=O)C[C@@H]1CC[C@@H]1[C@@H]2CC[C@]2(C)[C@@H](O)CC[C@@H]12 [DHT, 5-α-dihydrotestosterone]
PSMA expression in LNCaP cells: substantially inhibited

— paper PMC4406878 (Pharmaceutical research, 2011)
